Experiments:
Assay in all cases: Post-emergence/greenhouse herbicidal test
Type in all cases: in vivo
Avena fatua = tested on: Avena fatua
Description: (§1) Procarbazone- and flucarbazone-sodium were used as 70 WG formulation. Fenoxaprop-P-ethyl was used in a mixture with mefenpyr-diethyl (75 g of mefenpyr-diethyl/l) as Ralon® Super 69 EW. Cinidon-ethyl and florasulam and iodosufuron in a mixture with mefenpyr-diethyl were used in the form of the finished formulations Lotus® 200 EC, Primus® 50 SC and Hussar® 5 WG (15% mefenpyr-diethyl), respectively. Amicarbazone was used as 70 WG formulation.
(§2) In pre- and post-emergence experiments, the spray liquor is usually admixed with a surfactant (Renex 36), at a concentration of 0.1%.
(§3) Test plants are grown under controlled conditions (temperature and light).
(§4) Following the spray application, the plant containers are kept in a greenhouse under constant light and temperature conditions.
(§5) After about 3 weeks, the degree of damage to the plants is rated in % damage in comparison to the development of the untreated control.
(§6) 0% =no damage (like untreated control)
(§7) 100% =total destruction/damage

Matricaria inodora = settings: application rate 30 g ai/ha
Description: as §1, §2, §3, §4, §5, §6, §7

Viola arvensis = settings: post-emergence, about 3 weeks
Description: as §1, §2, §3, §4, §5, §6, §7

Cassia tora = settings: post-emergence, about 3 weeks
Description: as §1, §2, §3, §4, §5, §6, §7

Abutilon theophrasti = settings: 30 g of ai/ha, post-emergence, about 3 weeks
Description: as §1, §2, §3, §4, §5, §6, §7

Eriochloa villosa = settings: post-emergence, about 3 weeks
Description: as §1, §2, §3, §4, §5, §6, §7

Xanthium strumarium = settings: post-emergence, about 3 weeks
Description: as §1, §2, §3, §4, §5, §6, §7

Stellaria media = settings: post-emergence, about 3 weeks
Description: as §1, §2, §3, §4, §5, §6, §7

Lolium perenne = settings: post-emergence, about 3 weeks
Description: as §1, §2, §3, §4, §5, §6, §7

Bromus secalinus = settings: post-emergence, about 3 weeks
Description: as §1, §2, §3, §4, §5, §6, §7

Echinochloa crus-galli = settings: post-emergence, about 3 weeks
Description: as §1, §2, §3, §4, §5, §6, §7

Cyperus esculentus = settings: post-emergence, about 3 weeks
Description: as §1, §2, §3, §4, §5, §6, §7

Alopecurus myosuroides = settings: post-emergence, about 3 weeks
Description: as §1, §2, §3, §4, §5, §6, §7

Galium aparine = settings: post-emergence, about 3 weeks
Description: as §1, §2, §3, §4, §5, §6, §7

Polygonum convolvolus = settings: post-emergence, about 3 weeks
Description: as §1, §2, §3, §4, §5, §6, §7

Ipomoea hederacea = settings: post-emergence, about 3 weeks
Description: as §1, §2, §3, §4, §5, §6, §7

Chenopodium album = settings: post-emergence, about 3 weeks
Description: as §1, §2, §3, §4, §5, §6, §7

Amaranthus retroflexus = settings: post-emergence, about 3 weeks
Description: as §1, §2, §3, §4, §5, §6, §7

Solanum nigrum = settings: post-emergence, about 3 weeks
Description: as §1, §2, §3, §4, §5, §6, §7

Datura strumarium = settings: post-emergence, about 3 weeks
Description: as §1, §2, §3, §4, §5, §6, §7

CC(C)c1nn(C(=O)NC(C)(C)C)c(=O)n1N [Amicarbazone, 4-amino-N-(1,1-dimethyl-ethyl)-4,5-dihydro-3-(1-methyl-ethyl)-5-oxo-1H-1,2,4-triazole-1-carboxamide]
Avena fatua observed (Avena fatua; application rate 30 g ai/ha): 0 | Matricaria inodora observed (Matricaria inodora): 60 | Viola arvensis observed (Viola arvensis; 30 g of ai/ha): 70% | Cassia tora observed (Cassia tora; 30 g of ai/ha): 40% | Abutilon theophrasti observed (Abutilon theophrasti): 80% | Eriochloa villosa observed (Eriochloa villosa; 125 g of ai/ha): 70% | Xanthium strumarium observed (Xanthium strumarium; 30 g of ai/ha): 80% | Stellaria media observed (Stellaria media; 60 g of ai/ha): 80%

CCOC(=O)C(Cl)=Cc1cc(N2C(=O)C3=C(CCCC3)C2=O)ccc1Cl [Cinidon-ethyl, ethyl 2-chloro-3-[2-chloro-5-(1,3,4,5,6,7-hexahydro-1,3-dioxo-2H-isoindol-2-yl)-phenyl]-2-propanoate]
Avena fatua observed (Avena fatua; 8 g of ai/ha, post-emergence, about 3 weeks): 0% | Avena fatua observed (Avena fatua; 15 g of ai/ha, post-emergence, about 3 weeks): 10% | Lolium perenne observed (Lolium perenne; 8 g of ai/ha): 0% | Bromus secalinus observed (Bromus secalinus; 8 g of ai/ha): 0% | Bromus secalinus observed (Bromus secalinus; 15 g of ai/ha): 20% | Viola arvensis observed (Viola arvensis; 8 g of ai/ha): 0% | Viola arvensis observed (Viola arvensis; 15 g of ai/ha): 30% | Echinochloa crus-galli observed (Echinochloa crus-galli; 8 g of ai/ha): 0% | Echinochloa crus-galli observed (Echinochloa crus-galli; 15 g of ai/ha): 0% | Cassia tora observed (Cassia tora; 15 g of ai/ha): 95% | Eriochloa villosa observed (Eriochloa villosa; 15 g of ai/ha): 30% | Cyperus esculentus observed (Cyperus esculentus; 8 g of ai/ha): 0% | Cyperus esculentus observed (Cyperus esculentus; 15 g of ai/ha): 20% | Alopecurus myosuroides observed (Alopecurus myosuroides; 8 g of ai/ha): 0% | Alopecurus myosuroides observed (Alopecurus myosuroides; 15 g of ai/ha): 0%

CCOC(=O)[C@@H](C)Oc1ccc(Oc2nc3ccc(Cl)cc3o2)cc1 [Fenoxaprop-P-ethyl, ethyl (R)-2-[4-(6-chloro-benzoxazol-2-yl-oxy)-phenoxy]-propanoate]
Galium aparine observed (Galium aparine; 15 g of ai/ha): 0% | Galium aparine observed (Galium aparine; 30 g of ai/ha): 0% | Galium aparine observed (Galium aparine; 60 g of ai/ha): 0% | Lolium perenne observed (Lolium perenne; 30 g of ai/ha): 0% | Lolium perenne observed (Lolium perenne; 60 g of ai/ha): 0% | Bromus secalinus observed (Bromus secalinus; 30 g of ai/ha): 0% | Bromus secalinus observed (Bromus secalinus; 60 g of ai/ha): 0% | Viola arvensis observed (Viola arvensis; 15 g of ai/ha): 0% | Viola arvensis observed (Viola arvensis; 30 g of ai/ha): 0% | Viola arvensis observed (Viola arvensis; 60 g of ai/ha): 0% | Polygonum convolvolus observed (Polygonum convolvolus; 30 g of ai/ha): 0% | Polygonum convolvolus observed (Polygonum convolvolus; 60 g of ai/ha): 0% | Ipomoea hederacea observed (Ipomoea hederacea; 30 g of ai/ha): 0% | Ipomoea hederacea observed (Ipomoea hederacea; 60 g of ai/ha): 0% | Chenopodium album observed (Chenopodium album; 30 g of ai/ha): 0% | Chenopodium album observed (Chenopodium album; 60 g of ai/ha): 0% | Amaranthus retroflexus observed (Amaranthus retroflexus; 30 g of ai/ha): 0% | Amaranthus retroflexus observed (Amaranthus retroflexus; 60 g of ai/ha): 0% | Xanthium strumarium observed (Xanthium strumarium; 30 g of ai/ha): 0% | Xanthium strumarium observed (Xanthium strumarium; 60 g of ai/ha): 0% | Alopecurus myosuroides observed (Alopecurus myosuroides; 15 g of ai/ha): 0% | Alopecurus myosuroides observed (Alopecurus myosuroides; 30 g of ai/ha): 0% | Solanum nigrum observed (Solanum nigrum; 15 g of ai/ha): 0% | Solanum nigrum observed (Solanum nigrum; 30 g of ai/ha): 0% | Solanum nigrum observed (Solanum nigrum; 60 g of ai/ha): 0% | Datura strumarium observed (Datura strumarium; 30 g of ai/ha): 0% | Datura strumarium observed (Datura strumarium; 60 g of ai/ha): 0% | Stellaria media observed (Stellaria media; 30 g of ai/ha): 0% | Stellaria media observed (Stellaria media; 60 g of ai/ha): 0%
